Data set [1] is described as follows: Pharmacokinetic experiment: drug concentration in plasma of SD rats after oral administration (LC-MS/MS). The following applies: 10 mg/kg; for AUC(0-t) / Cmax / Tmax / half-life: male, SD, rat, po; for AUClast (Plasma) / Cmax (Plasma) / t1/2 (Plasma) / tmax (Plasma): SD rats, oral.
Data set [2] concerns CFA rat model. Briefly: Pharmacodynamic experiment: Frey's hair pain threshold in CFA rat model. Format: in vivo, SD rats. The following applies: oral 10 mg/kg; for Pain threshold value, Frey's hair: mean ± standard deviation.
Data set [3] can be described thus: Pharmacokinetic experiment: drug concentration in brain tissue of SD rats after oral administration (LC-MS/MS). The following applies: 10 mg/kg; for AUClast (Brain) / Cmax (Brain) / AUClast Ratio (Brain/Plasma) / t1/2 (Brain) / tmax (Brain): SD rats, oral; for AUClast (Brain) / Cmax (Brain) / t1/2 (Brain) / tmax (Brain): brain tissue; for Kp / Tmax / half-life: male, SD, rat, po; for Kp: brain and plasma; for Tmax / half-life: brain.

For data set [4] the following is noted: in vivo; cited from earlier work.
The mark [5] stands for this setting: 0 h (basal value before administration).

What is called AUC(0-t) is the area under the concentration-time curve up to a stated or last time point. A word on the Cmax: it is the peak of the concentration-time curve. By Tmax is commonly meant the time from dosing to the highest level. A word on the half-life: it is how long it takes for the measured level to halve. Broadly, the Kp is tissue or fluid exposure divided by exposure in the circulation. For the compound `C[C@@]12CCCCC[C@@H](Cc3ccc(O)cc31)[C@@H]2N` [JK-2215D00, 13-amino-5,6,7,8,9,10,11,12-octahydro-5-methyl-5,11-methylenebenzocyclodecen-3-ol, reference compound], in data set [1], the AUC(0-t) turned out to be 232 ng·h/mL, the Cmax is 193 ng/mL, the Tmax stood at 1 h and the half-life is 1.41 h. In data set [2] (setting [5]), the “Pain threshold value, Frey's hair” value was 7.7 ± 1.1 g. Besides, the “Pain threshold value, Frey's hair” value in data set [2] (0.25 h after administration) came out at 9.8 ± 1.0 g. Further, the “Pain threshold value, Frey's hair” value in data set [2] (2 h after administration) was 10.2 ± 2.7 g. Besides, in data set [2] (6 h after administration), the “Pain threshold value, Frey's hair” value was found to be 9.2 ± 1.4 g. For the same compound, the “Pain threshold value, Frey's hair” value in data set [2] (24 h after administration) was determined as 7.5 ± 1.8 g. Further, the “analgesic effect at 6 h after administration” value in data set [2] (6 h) was “not significant”. In data set [3], the “AUClast (Brain)” value worked out at 267 ng·h/g, the “Cmax (Brain)” value was determined as 221 ng/g, the Kp is 1.15 and the Tmax is 1 h. In addition, the half-life in data set [3] is 2.05 h. Moreover, in data set [4], the “analgesic effect relative to pethidine” value is 5-9 times, the “average peak concentration at which adverse reactions occur” value was 45 µg/L and the “blood concentration producing a potent analgesic effect” value was 5 to 9 µg/L.

`COCCOCCOCCOCCOCCOCCOc1ccc2c(c1)C1(C)CCCCCC(C2)C1N` (stereo not drawn) [JK-2215D01, Monomethoxyhexaethylene Glycol-Dezocine Conjugate]: in data set [1], the “AUClast (Plasma)” value worked out at 1366 ng·h/mL, the “Cmax (Plasma)” value stood at 345 ng/mL, the “t1/2 (Plasma)” value came to 4.33 h and the “tmax (Plasma)” value is on record as 3 h. In addition, the “Pain threshold value, Frey's hair” value in data set [2] (setting [5]) turned out to be 7.6 ± 0.8 g. In data set [2] (0.25 h after administration), the “Pain threshold value, Frey's hair” value is 8.7 ± 1.3 g. The “Pain threshold value, Frey's hair” value in data set [2] (2 h after administration) came out at 9.1 ± 1.3 g. Also, the “Pain threshold value, Frey's hair” value in data set [2] (6 h after administration) amounted to 8.7 ± 1.1 g. Besides, the “Pain threshold value, Frey's hair” value in data set [2] (24 h after administration) stood at 7.8 ± 1.4 g. In data set [3], the “AUClast Ratio (Brain/Plasma)” value was found to be 0.734, the “AUClast (Brain)” value worked out at 925 ng·h/g, the “Cmax (Brain)” value came to 147 ng/g and the “t1/2 (Brain)” value is 17.6 h. In data set [3], the “tmax (Brain)” value is given as 8 h.

Regarding `COCCOCCOCCOCCOCCOCCN[C@H]1[C@H]2CCCCC[C@]1(C)c1cc(O)ccc1C2` [JK-2215D02, Monomethoxyhexaethylene Glycol-Dezocine Conjugate], in data set [1], the “AUClast (Plasma)” value came to 1312 ng·h/mL, the “Cmax (Plasma)” value was found to be 339 ng/mL, the “t1/2 (Plasma)” value is on record as 4.45 h and the “tmax (Plasma)” value was found to be 3 h. In addition, the “Pain threshold value, Frey's hair” value in data set [2] (setting [5]) is given as 7.8 ± 0.8 g. The “Pain threshold value, Frey's hair” value in data set [2] (0.25 h after administration) is 10.3 ± 1.2 g. For the same compound, the “Pain threshold value, Frey's hair” value in data set [2] (2 h after administration) is listed as 12.1 ± 1.5 g. Besides, the “Pain threshold value, Frey's hair” value in data set [2] (6 h after administration) was found to be 13.2 ± 0.9 g. Besides, in data set [2] (24 h after administration), the “Pain threshold value, Frey's hair” value was determined as 10.7 ± 1.5 g. In addition, in data set [3], the “AUClast Ratio (Brain/Plasma)” value was found to be 0.757, the “AUClast (Brain)” value amounted to 993 ng·h/g, the “Cmax (Brain)” value was 166 ng/g and the “t1/2 (Brain)” value amounted to 18.7 h. In data set [3], the “tmax (Brain)” value was found to be 8 h.

In the case of `C[C@@]12CCCCC[C@@H](Cc3ccc(O)cc31)[C@@H]2NCCOCCOCCOCCOCCN[C@H]1[C@H]2CCCCC[C@]1(C)c1cc(O)ccc1C2` [JK-2215D03, Pentaethylene Glycol-Dezocine Conjugate], in data set [1], the AUC(0-t) was 1230 ng·h/mL, the Cmax came out at 344 ng/mL, the time to peak (Tmax) is 2 h and the half-life was 4.12 h. In addition, the “Pain threshold value, Frey's hair” value in data set [2] (setting [5]) was 7.7 ± 1.4 g. Also, the “Pain threshold value, Frey's hair” value in data set [2] (0.25 h after administration) was 9.2 ± 1.4 g. Further, in data set [2] (2 h after administration), the “Pain threshold value, Frey's hair” value was 11.2 ± 2.0 g. Moreover, the “Pain threshold value, Frey's hair” value in data set [2] (6 h after administration) came to 11.4 ± 0.9 g. Besides, the “Pain threshold value, Frey's hair” value in data set [2] (24 h after administration) came to 10.6 ± 2.0 g. In addition, in data set [3], the “AUClast (Brain)” value came to 813 ng·h/g, the “Cmax (Brain)” value worked out at 129 ng/g, the Kp came out at 0.659 and the Tmax was 7 h. This compound also gave a half-life in data set [3] of 19.7 h.

The values above are taken from patent publication US10596268B2, “Conjugate of dezocine and polyethylene glycol” (JenKem Technology Co., Ltd. (Beijing), priority 2016, dated 2020).
